Assay results: patent publication US5164388A, “Heterocyclic peptide renin inhibitors” (Abbott Laboratories, priority 1991, dated 1992)
pIC50: −log10 of the molar value.

Molecular target: T1, human renal renin (Homo sapiens, UniProt P00797)
T1 construct: human renal renin, free from acid proteolytic activity; from tissue
T1 sequence (P00797 67-406): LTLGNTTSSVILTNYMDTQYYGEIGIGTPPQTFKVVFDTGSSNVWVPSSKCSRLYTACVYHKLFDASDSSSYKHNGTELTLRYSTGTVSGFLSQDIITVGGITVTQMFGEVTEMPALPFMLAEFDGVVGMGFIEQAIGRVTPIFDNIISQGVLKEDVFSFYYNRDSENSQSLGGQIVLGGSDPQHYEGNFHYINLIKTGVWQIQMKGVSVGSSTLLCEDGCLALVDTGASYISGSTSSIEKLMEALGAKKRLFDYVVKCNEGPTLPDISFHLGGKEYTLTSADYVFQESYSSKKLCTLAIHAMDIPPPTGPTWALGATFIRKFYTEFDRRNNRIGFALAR
Assay: Inhibition of human renal renin in vitro (angiotensin I formed, radioimmunoassay)
Format: biochemical
Details: human angiotensinogen substrate, 37 degrees C., pH 6.0
Experimental: The novel compounds of the present invention are also useful for treating congestive heart failure. […] At the end of the incubation, the amount of angiotensin I formed is measured by radioimmunoassay and the molar concentration required to cause 50% inhibition, expressed as the IC50, is calculated.

| Compound | pIC50 |
| --- | --- |
| CCCCC(C(=O)N[C@@H](CC1CCCCC1)[C@@H](O)[C@@H](O)CC(C)C)N1CCCC(Cc2ccccc2)C1=O (mixture of isomers) [Example 56A, 2(RS)-(3-Benzyl-2-oxo-1-piperidin-1-yl)-hexanoic acid Amide of 2(S)-Amino-1-cyclohexyl-3(R),4(S)-dihydroxy-6-heptane] | 6.39 |
| CC(C)C[C@H](O)[C@H](O)[C@H](CC1CCCCC1)NC(=O)C(Cc1cnc[nH]1)N1CCC[C@@](Cc2ccccc2)(NC(=O)OCc2ccccc2)C1=O (single isomer, unassigned) [Example 87, (2R or 2S)-((3S)-(Benzyloxycarbonyl)amino)-3-phenylmethyl-2-oxo-1-piperidinyl)-3-(4-imidazolyl)propionic acid amide of (2S,3R,4S)-2-amino-1-cyclohexyl-3,4-dihydroxy-6-methylheptane] | 8.85 |
| CC(C)C[C@H](O)[C@H](O)[C@H](CC1CCCCC1)NC(=O)C(Cc1cnc[nH]1)N1CCC[C@](Cc2ccccc2)(NC(=O)OCc2ccccc2)C1=O (single isomer, unassigned) [Example 88, (2R or 2S)-((3R)-((Benzyloxycarbonyl)amino)-3-phenylmethyl-2-oxo-1-piperidinyl)-3-(4-imidazolyl)propionic acid amide of (2S,3R,4S)-2-amino-1-cyclohexyl-3,4-dihydroxy-6-methylheptane] | 7.55 |
| CCCCC(C(=O)N[C@@H](CC1CCCCC1)[C@@H](O)[C@@H](O)CC(C)C)N1CCC(Cc2ccccc2)CC1 (stereo partly drawn) [Example 13, 2-(4-Benzylpiperidin-1-yl)-hexanoic acid Amide of 2(S)-Amino-1-cyclohexyl-3(R),4(S)-dihydroxy-6-methylheptane] | 6.37 |
| CCCCC(C(=O)N[C@@H](CC1CCCCC1)[C@@H](O)[C@@H](O)CC(C)C)N1CCCC(Cc2ccccc2)C1 (stereo partly drawn) [Example 18, 2-(3-Benzylpiperidin-1-yl)-hexanoic acid Amide of 2(S)-Amino-1-cyclohexyl-3(R),4(S)-dihydroxy-6-methylheptane] | 6.04 |
| CCCCC(C(=O)N[C@@H](CC1CCCCC1)[C@@H](O)[C@@H](O)CC(C)C)N1CCCC(Cc2ccccc2)C1 (stereo partly drawn) [Example 20, 2(3-Benzylpiperidin-1-yl)-hexanoic acid Amide of 2(S)-Amino-1-cyclohexyl-3(R),4(S)-dihydroxy-6-methylheptane] | 6.62 |
| CCCC[C@H](NC[C@@H](Cc1ccccc1)NC(=O)OCc1ccccc1)C(=O)OC [Example 21] | 7.21 |
| CCCC[C@@H](C(=O)OC)N(CC(=O)OCc1ccccc1)C[C@@H](Cc1ccccc1)NC(=O)OCc1ccccc1 [Example 22] | 6.52 |
| CCCC[C@@H](C(=O)N[C@@H](CC1CCCCC1)[C@@H](O)[C@@H](O)CC(C)C)N1CC(=O)N[C@H](Cc2ccccc2)C1 [Example 24] | 6.77 |
| CCCCC(C(=O)N[C@@H](CC1CCCCC1)[C@@H](O)[C@@H](O)CC(C)C)N1CCN(Cc2ccccc2)CC1 (stereo partly drawn) [Example 32A, 2-(4-Benzyl-piperazin-1-yl)-hexanoic acid Amide of 2(S)-Amino-1-cyclohexyl-3(R),4(S)-dihydroxy-6-methylheptane] | 6.09 |
| CCCCC(C(=O)N[C@@H](CC1CCCCC1)[C@@H](O)[C@@H](O)CC(C)C)N1CCN(C(=O)OC(C)(C)C)[C@@H](Cc2ccccc2)C1 (stereo partly drawn) [Example 34A, 2-(3S-Benzyl-4-N-tert-butyloxycarbonyl-piperazin-1-yl)-hexanoic acid Amide of 2(S)-Amino-1-cyclohexyl-3(R),4(S)-dihydroxy-6-methylheptane] | 7.00 |
| CCCCC(C(=O)N[C@@H](CC1CCCCC1)[C@@H](O)[C@@H](O)CC(C)C)N1CCN(C(=O)N(C)C)[C@H](Cc2ccccc2)C1 (stereo partly drawn) [Example 35A, 2-(3R-Benzyl-4-N-dimethylaminocarbonyl-piperazin-1-yl)-hexanoic acid Amide of 2(S)-Amino-1-cyclohexyl-3(R),4(S)-dihydroxy-6-methylheptane] | 7.04 |
| CC(C)C[C@H](O)[C@H](O)[C@H](CC1CCCCC1)NC(=O)C(Cc1cscn1)N1CCN(Cc2ccccc2)[C@H](Cc2ccccc2)C1 (stereo partly drawn) [Example 36, 3-(4-Thiazolyl)-2-(R,S)-(3R-benzyl-4-N-benzylpiperazin-1-yl)-propionic acid Amide of 2(S)-Amino-1-cyclohexyl-3(R),4(S)-dihydroxy-6-methylheptane] | 6.48 |
| CCCC[C@@H](C(=O)N[C@@H](CC1CCCCC1)[C@@H](O)[C@@H](O)CC(C)C)N1CCN(C(=O)OC(C)(C)C)[C@H](Cc2ccccc2)C1=O [Example 44, 2(S)-(3R-Benzyl-4N-tert-butyloxycarbonyl-2-keto-piperazin-1-yl)-hexanoic acid Amide of 2(S)-Amino-1-cyclohexyl-3(R),4(S)-dihydroxy-6-methylheptane] | 7.82 |
| CC(C)C[C@H](O)[C@H](O)[C@H](CC1CCCCC1)NC(=O)[C@@H](Cc1c[nH]cn1)N1CCN(C(=O)OC(C)(C)C)[C@H](Cc2ccccc2)C1=O [Example 45, 3R-(4-Imidazolyl)-2(R)-(3R-benzyl-4-N-tert-butyloxycarbonyl-2-keto-piperazin-1-yl)-propionic acid Amide of 2(S)-Amino-1-cyclohexyl-3(R),4(S)-dihydroxy-6-methylheptane] | 7.89 |
| CCCC[C@@H](C(=O)N[C@@H](CC1CCCCC1)[C@@H](O)[C@@H](O)CC(C)C)N1CCN(C(=O)N2CCN(C)CC2)[C@H](Cc2ccccc2)C1=O [Example 47, 2(S)-(3R-Benzyl-4-N-(4-(N'-methyl)-piperazin-1-yl-carbonyl)-2-keto-piperazin-1-yl)-hexanoic acid Amide of 2(S)-Amino-1-cyclohexyl-3(R),4(S)-dihydroxy-6-methylheptane] | 7.09 |
| CCCC[C@@H](C(=O)N[C@@H](CC1CCCCC1)[C@@H](O)[C@@H](O)CC(C)C)N1CCN(C(=O)N(C)CCOCOC)[C@H](Cc2ccccc2)C1=O [Example 48, 2(S)-(3R-Benzyl-4-N-(N-methyl-N-(methoxymethoxyethyl)-aminocarbonyl)-2-keto-piperazin-1-yl)-hexanoic acid Amide of 2(S)-Amino-1-cyclohexyl-3(R),4(S)-dihydroxy-6-methylheptane] | 7.66 |
| CCCC[C@@H](C(=O)N[C@@H](CC1CCCCC1)[C@@H](O)[C@@H](O)CC(C)C)N1CCN(C(=O)N2CCOCC2)[C@H](Cc2ccccc2)C1=O [Example 50, 2(S)-(3R-Benzyl-4-N-morpholin-1-yl-carbonyl-2-keto-piperazin-1-yl)-hexanoicacid Amide of 2(S)-Amino-1-cyclohexyl-3(R),4(S)-dihydroxy-6-methylheptane] | 7.66 |
| CC(C)C[C@H](O)[C@H](O)[C@H](CC1CCCCC1)NC(=O)[C@H](Cc1c[nH]cn1)N1CCN(C(=O)N2CCOCC2)[C@H](Cc2ccccc2)C1=O [Example 51, 3-(4-Imidazolyl)-2(S)-(3R-benzyl-4-N-morpholin-1-yl-carbonyl-2-keto-piperazin-1-yl) -propionic Acid Amide of 2(S)-Amino-1-cyclohexyl-3(R),4(S)-dihydroxy-6-methylheptane] | 6.64 |
| CC(C)C[C@H](O)[C@H](O)[C@H](CC1CCCCC1)NC(=O)[C@H](Cc1cnc[nH]1)N1CC[C@H](Cc2ccccc2)C1=O [Example 73, (2S)-2-(Imidazol-4-ylmethyl)-2-((3S)-phenylmethyl-2-oxo-pyrrolidin-1-yl)acetic acid amide of (2S,3R,4S)-2-amino-1-cyclohexyl-3,4-dihydroxy-6-methylheptane] | 7.17 |
| CC(C)C[C@H](O)[C@H](O)[C@H](CC1CCCCC1)NC(=O)[C@H](Cc1cnc[nH]1)N1C[C@H](Cc2ccccc2)N(CC(C)C)C1=O [Example 118, (2S)-2-(Imidazol-4-ylmethyl)-2-(3-isobutyl-(4S)-phenylmethylimidazolidin-2-one-1-yl)acetic Acid Amide of (2)-Amino-1-cyclohexyl-3(R),4(S)-dihydroxy-6-methylheptane] | 6.82 |

The next lines start with the values.

| pIC50 | Compound |
| --- | --- |
| 7.82 | CC(C)C[C@H](O)[C@H](O)[C@H](CC1CCCCC1)NC(=O)C(Cc1cnc[nH]1)N1CCC(Cc2ccccc2)(NC(=O)OCc2ccccc2)C1=O (single isomer, unassigned) [Example 63B] |
| 8.35 | CC(C)C[C@H](O)[C@H](O)[C@H](CC1CCCCC1)NC(=O)C(Cc1cnc[nH]1)N1CCC(Cc2ccccc2)(NC(=O)OCc2ccccc2)C1=O (single isomer, unassigned) [Example 63C] |
| 6.11 | CCCCC(C(=O)N[C@@H](CC1CCCCC1)[C@@H](O)[C@@H](O)CC(C)C)N1CCN(c2ncccn2)CC1 (stereo partly drawn) [Example 12A, 2-(4-(2-Pyrimidyl)-piperazin-1-yl)-hexanoic acid Amide of 2(S)-Amino-1-cyclohexyl-3(R),4(S)-dihydroxy-6-methylheptane] |
| 8.21 | CCCCC(C(=O)N[C@@H](CC1CCCCC1)[C@@H](O)[C@@H](O)CC(C)C)N1CCN(C(=O)N2CCOCC2)[C@H](Cc2ccccc2)C1 (stereo partly drawn) [Example 38A, 2-(3R-Benzyl-4-N-(morpholin-1-yl-carbonyl)-piperazin)-1-yl-hexanoic acid Amide of 2(S)-Amino-1-cyclohexyl-3(R),4(S)-dihydroxy-6-methylheptane] |
| 7.49 | CC(C)C[C@H](O)[C@H](O)[C@H](CC1CCCCC1)NC(=O)C(Cc1cscn1)N1CCN(C(=O)N2CCOCC2)[C@H](Cc2ccccc2)C1=O (stereo partly drawn) [Example 49B, 3-(4-Thiazolyl)-2-(3R-benzyl-4-N-morpholin-1-yl-carbonyl-2-keto-piperazin-1-yl)-propionic acid Amide of 2(S)-Amino-1-cyclohexyl-3(R),4(S)-dihydroxy-6-methylheptane] |
